Experimental data from PubChem BioAssay AID330 (DTP/NCI, 2004).
“And” between values parts separate entries of the source, which are not always exact repeats. Equal values may be shown once. Toxic doses and inconclusive results are not listed. Rule for the calls: active = survival T/C of 150% or more; inactive = T/C below 125% in these data.

Test system: P388 leukemia ip, CD2F1 mice, survival T/C
Assay: NCI In Vivo Anticancer Drug Screen. Data for tumor model P388 Leukemia (intraperitoneal) in CD2F1 (CDF1) mice
Conditions: endpoint: median survival time, higher = longer survival
In short: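 Mice carrying the transplanted tumor received test compound or vehicle. Survival was recorded in each group, and the value is the treated-group measurement divided by that of the vehicle-treated control group.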

[1] = dose: 50.0 mg/kg/injection, schedule: Q01DX009 (ip), vehicle: Klucel (hydroxypropylcellulose) (HPC)
[2] = dose: 100.0 mg/kg/injection, schedule: Q01DX009 (ip), vehicle: Klucel (hydroxypropylcellulose) (HPC)
[3] = dose: 200.0 mg/kg/injection, schedule: Q01DX009 (ip), vehicle: Klucel (hydroxypropylcellulose) (HPC)
[4] = dose: 100.0 mg/kg/injection, schedule: Q01DX001 (ip), vehicle: saline
[5] = dose: 60.0 mg/kg/injection, schedule: Q01DX005 (ip), vehicle: Klucel (hydroxypropylcellulose) (HPC)
[6] = dose: 120.0 mg/kg/injection, schedule: Q01DX005 (ip), vehicle: Klucel (hydroxypropylcellulose) (HPC)
[7] = dose: 240.0 mg/kg/injection, schedule: Q01DX005 (ip), vehicle: Klucel (hydroxypropylcellulose) (HPC)
[8] = dose: 25.0 mg/kg/injection, schedule: Q01DX009 (ip), vehicle: saline with Tween-80
[9] = dose: 50.0 mg/kg/injection, schedule: Q01DX009 (ip), vehicle: saline with Tween-80
[10] = dose: 100.0 mg/kg/injection, schedule: Q01DX009 (ip), vehicle: saline with Tween-80
[11] = dose: 200.0 mg/kg/injection, schedule: Q01DX009 (ip), vehicle: saline with Tween-80
[12] = dose: 400.0 mg/kg/injection, schedule: Q01DX009 (ip), vehicle: saline with Tween-80
[13] = dose: 50.0 mg/kg/injection, schedule: Q01DX005 (ip), vehicle: saline with Tween-80
[14] = dose: 100.0 mg/kg/injection, schedule: Q01DX005 (ip), vehicle: saline with Tween-80
[15] = dose: 200.0 mg/kg/injection, schedule: Q01DX005 (ip), vehicle: saline with Tween-80

Measured: T/C

C=C(C)/C(=C/C(=O)OCC)Sc1ccccc1
inactive: dose: 100.0 mg/kg/injection, schedule: Q04DX003 (ip), vehicle: Klucel (hydroxypropylcellulose) (HPC) 106 % of control | dose: 200.0 mg/kg/injection, schedule: Q04DX003 (ip), vehicle: Klucel (hydroxypropylcellulose) (HPC) 106 % of control | dose: 400.0 mg/kg/injection, schedule: Q04DX003 (ip), vehicle: Klucel (hydroxypropylcellulose) (HPC) 102 % of control

COc1ccc(/C(C#N)=C\c2ccco2)cc1
inactive: dose: 50.0 mg/kg/injection, schedule: Q01DX009 (ip), vehicle: saline 111 % of control | dose: 100.0 mg/kg/injection, schedule: Q01DX009 (ip), vehicle: saline 110 % of control | dose: 200.0 mg/kg/injection, schedule: Q01DX009 (ip), vehicle: saline 101 % of control

O=C(Oc1ccccc1)OC1CCCN(C(=O)Oc2ccccc2)C1 (stereo not given)
inactive: [1] 93 % of control | [2] 93 % of control | [3] 93 % of control

NCCNCCN1C(=O)c2cccc3cccc(c23)C1=O
inactive: [4] 110 % of control | dose: 200.0 mg/kg/injection, schedule: Q01DX001 (ip), vehicle: saline 86 % of control

C/C(C=O)=C\c1ccc(N(C)C)cc1
inactive: [5] 101 % of control | [6] 101 % of control | [7] 100 % of control

CNC(=S)NNc1ccc(C)cc1
inactive: dose: 12.5 mg/kg/injection, schedule: Q01DX009 (ip), vehicle: other 87 % of control | dose: 25.0 mg/kg/injection, schedule: Q01DX009 (ip), vehicle: other 90 % of control | dose: 100.0 mg/kg/injection, schedule: Q01DX009 (ip), vehicle: other 92 % of control | dose: 200.0 mg/kg/injection, schedule: Q01DX009 (ip), vehicle: other 101 % of control

CCOC(=O)Cn1c(=S)sc2ccccc21
inactive: [8] 91 % of control | [9] 89 % of control | [10] 99 % of control | [11] 91 % of control

O=C(O)c1nnn(-c2ccccc2)n1
inactive: dose: 50.0 mg/kg/injection, schedule: Q01DX005 (ip), vehicle: saline 101 % of control | dose: 100.0 mg/kg/injection, schedule: Q01DX005 (ip), vehicle: saline 101 % of control | dose: 200.0 mg/kg/injection, schedule: Q01DX005 (ip), vehicle: saline 106 % of control

CC(=O)N1CC(=O)NC1=S
inactive: [9] 106 % of control | [10] 97 % of control | [11] 103 % of control and 95 % of control | [12] 104 % of control

CCOC(=O)c1cc(Cl)cc2c(=O)c3c([nH]c12)C(=O)c1c([nH]c2c(C(=O)OCC)cc(Cl)cc2c1=O)C3=O
inactive: [1] 99 % of control | [2] 105 % of control | [3] 98 % of control

CCc1cnc2ccccc2c1/C=C/c1ccc(N(C)C)cc1
inactive: [9] 98 % of control | [10] 105 % of control | [11] 103 % of control

O=C(CC(c1ccncc1)C(C(=O)c1ccc(Cl)cc1)C(c1ccncc1)C(C(=O)c1ccc(Cl)cc1)C(O)c1ccncc1)c1ccc(Cl)cc1 (stereo not given)
inactive: [13] 101 % of control | [14] 93 % of control | [15] 93 % of control

C[n+]1c(C2(O)CCCCCCCCCCC2)sc2ccccc21
inactive: [5] 95 % of control | [6] 100 % of control | [7] 115 % of control

COc1ccc(SSc2ccc(OC)n[n+]2[O-])[n+]([O-])n1
inactive: dose: 10.0 mg/kg/injection, schedule: Q01DX001 (ip), vehicle: Klucel (hydroxypropylcellulose) (HPC) 103 % of control | dose: 200.0 mg/kg/injection, schedule: Q01DX001 (ip), vehicle: Klucel (hydroxypropylcellulose) (HPC) 111 % of control

CCCCCCCCCCCCCCCc1ccc(C(=O)C[n+]2ccccc2)cc1
inactive: dose: 6.25 mg/kg/injection, schedule: Q04DX003 (ip), vehicle: saline with Tween-80 109 % of control | dose: 12.5 mg/kg/injection, schedule: Q04DX003 (ip), vehicle: saline with Tween-80 118 % of control | dose: 16.5 mg/kg/injection, schedule: Q04DX003 (ip), vehicle: saline with Tween-80 95 % of control | dose: 25.0 mg/kg/injection, schedule: Q04DX003 (ip), vehicle: saline with Tween-80 100 % of control

O=c1c(Cl)cc(Cl)cn1S(=O)(=O)c1ccc([N+](=O)[O-])cc1
inactive: [8] 106 % of control | [9] 105 % of control | [10] 100 % of control and 104 % of control | [11] 104 % of control and 89 % of control | [12] 89 % of control

CC(=O)Nc1ccc(N=NN(C)c2ccccc2)cc1
inactive: dose: 50.0 mg/kg/injection, schedule: Q01DX001 (ip), vehicle: saline 104 % of control | [4] 100 % of control

CCn1c2ccc(NC(=O)OC(C)C)cc2c2c3[nH]c(=O)c4cccn4c3ccc21
inactive: dose: 100.0 mg/kg/injection, schedule: Q01DX001 (ip), vehicle: saline with Tween-80 87 % of control | dose: 200.0 mg/kg/injection, schedule: Q01DX001 (ip), vehicle: saline with Tween-80 87 % of control | dose: 400.0 mg/kg/injection, schedule: Q01DX001 (ip), vehicle: saline with Tween-80 92 % of control

CC1(c2ccccc2)C(=O)c2ccccc2N1O (stereo not given)
inactive: dose: 50.0 mg/kg/injection, schedule: Q04DX002 (ip), vehicle: saline 98 % of control | dose: 100.0 mg/kg/injection, schedule: Q04DX002 (ip), vehicle: saline 100 % of control | dose: 200.0 mg/kg/injection, schedule: Q04DX002 (ip), vehicle: saline 101 % of control

C(=Nc1cccc2ccccc12)Nc1cccc2ccccc12.[Cu+2]
inactive: [9] 96 % of control | [10] 98 % of control | [11] 95 % of control

CCCCCC(C[N+](C)(C)C)C(=O)/C=C/c1ccc(Cl)c(Cl)c1 (stereo not given)
inactive: dose: 3.12 mg/kg/injection, schedule: Q01DX009 (ip), vehicle: saline with Tween-80 105 % of control | dose: 6.25 mg/kg/injection, schedule: Q01DX009 (ip), vehicle: saline with Tween-80 120 % of control | dose: 6.25 mg/kg/injection, schedule: Q01DX009 (ip), vehicle: saline 114 % of control | dose: 12.5 mg/kg/injection, schedule: Q01DX009 (ip), vehicle: saline with Tween-80 101 % of control | dose: 12.5 mg/kg/injection, schedule: Q01DX009 (ip), vehicle: saline 114 % of control and 124 % of control | [8] 111 % of control | dose: 25.0 mg/kg/injection, schedule: Q01DX009 (ip), vehicle: saline 110 % of control

Cc1ccc2c(c1)SP(c1ccccc1)S2 (stereo not given)
inactive: dose: 100.0 mg/kg/injection, schedule: Q04DX002 (ip), vehicle: saline with Tween-80 103 % of control | dose: 200.0 mg/kg/injection, schedule: Q04DX002 (ip), vehicle: saline with Tween-80 104 % of control | dose: 400.0 mg/kg/injection, schedule: Q04DX002 (ip), vehicle: saline with Tween-80 112 % of control

COc1cc(-c2cc(=O)c3c(O)cc(O)cc3o2)cc(OC)c1O
inactive: dose: 5.0 mg/kg/injection, schedule: Q01DX009 (ip), vehicle: Klucel (hydroxypropylcellulose) (HPC) 100 % of control | dose: 10.0 mg/kg/injection, schedule: Q01DX009 (ip), vehicle: Klucel (hydroxypropylcellulose) (HPC) 98 % of control | dose: 20.0 mg/kg/injection, schedule: Q01DX009 (ip), vehicle: Klucel (hydroxypropylcellulose) (HPC) 100 % of control | dose: 40.0 mg/kg/injection, schedule: Q01DX009 (ip), vehicle: Klucel (hydroxypropylcellulose) (HPC) 90 % of control

CC1(C)OP(=O)(O)c2ccccc21
inactive: [1] 100 % of control | [2] 100 % of control | [3] 88 % of control

CCCNC(=O)OCC1=C(COC(=O)NCCC)C2OC1C(C(=O)OC)=C2C(=O)OC
inactive: dose: 12.5 mg/kg/injection, schedule: Q01DX009 (ip), vehicle: distilled water + Tween-80 89 % of control | dose: 25.0 mg/kg/injection, schedule: Q01DX009 (ip), vehicle: distilled water + Tween-80 93 % of control | dose: 50.0 mg/kg/injection, schedule: Q01DX009 (ip), vehicle: distilled water + Tween-80 86 % of control

CC(Cc1nc2ccccc2[nH]1)Cc1nc2ccccc2[nH]1
inactive: dose: 25.0 mg/kg/injection, schedule: Q01DX005 (ip), vehicle: Klucel (hydroxypropylcellulose) (HPC) 100 % of control | dose: 50.0 mg/kg/injection, schedule: Q01DX005 (ip), vehicle: Klucel (hydroxypropylcellulose) (HPC) 99 % of control | dose: 100.0 mg/kg/injection, schedule: Q01DX005 (ip), vehicle: Klucel (hydroxypropylcellulose) (HPC) 92 % of control | dose: 200.0 mg/kg/injection, schedule: Q01DX005 (ip), vehicle: Klucel (hydroxypropylcellulose) (HPC) 91 % of control

O=C(N/N=C/c1ccccc1O)c1ccccc1O
inactive: [13] 100 % of control | [14] 96 % of control | [15] 99 % of control
